Results as given in patent US20070010548A1, “Compounds having inhibitive activity of phosphatidylinositol 3-kinase and methods of use thereof” (ZENTARIS GmbH, priority 2003, published 2007).
Where two headings read alike, the source gives them in different places.

Tests used:
SKOV3 cells = test: MTT cell proliferation/viability assay, SKOV3 ovarian cancer cells; type: cell-based; conditions: Homo sapiens
Experimental: (§1) The ovarian cancer cell line SKOV3 is not altered in PI 3-K signaling and should be less sensitive to the anti-proliferative effects produced by treatment with PI 3-K inhibitors, while the OVCAR3 cell line, which is altered in PI 3-K signaling, via amplification of PI 3-K activity, should be sensitive. SKOV3 cells were seeded in 96-well cell culture plates (Greiner) at a density of 20,000 cells per well in McCoys 5A media (GibcoBRL) with 10% fetal calf serum and 20 mM L-glutamine. OVCAR3 cells were seeded at a density of 15,000 cells per well in RPMI 1640 media (GibcoBRL) containing 20 mM 1-glutamine, 0.01 ng/ml bovine insulin, 10 mM Hepes pH 7.4, 1 mM sodium pyruvate, 2.5 g/L glucose, and 20% fetal calf serum. After 24 hours, compounds were added to cell media to a final concentration of 1 μM, and the cells were grown in the presence of the compounds for 48 hours, in media containing 0.5% fetal calf serum. Viability was determined using a MTT cell proliferation assay (R and D Systems) and comparison to DMSO alone controls (100% viability). Compounds which result in reduced viability may act either by inhibiting cell proliferation or by inducing apoptosis (programmed cell death).
(§2) Many of these also show similar selective effects on cell growth. Table 2 summarizes the results of two separate cell proliferation experiments for selected compounds of the present invention.

OVCAR3 cells = test: MTT cell proliferation/viability assay, OVCAR3 ovarian cancer cells; type: cell-based; conditions: Homo sapiens
Experimental: as §1, §2

[1] = system: tumor cells altered in PI 3-K/PTEN; test: Cellular growth inhibition assays on tumor cells altered in PI 3-K/PTEN; type: cell-based; conditions: for IC50: approximate, read-out: Approx. mIC50 in cellular assays
Experimental: as §1
Selected compounds were evaluated against paired ovarian cancer cell lines at a range of concentrations to determine effective concentrations for growth inhibition.
MDA-MB-468 and MDA-MB-231 cells were seeded in 96-well cell culture plates (Greiner) at a density of 20,000 cells per well in RMPI media (GibcoBRL) with 10% fetal calf serum and 20 mM L-glutamine. After 24 hours, compounds were added to cell media to a final concentrations ranging from 10 nM to 100 μM, and the cells were grown in the presence of the compounds for 48 hours in RMPI media containing 0.5% fetal calf serum and 20 mM L-glutamine. Viability was determined using a MTT cell proliferation assay (R and D Systems) and comparison to DMSO alone controls (100% viability). Compounds which result in reduced viability may act either by inhibiting cell proliferation or by inducing apoptosis (programmed cell death). […] Selected compounds were evaluated against the paired breast cancer cell lines at a range of concentrations to determine effective concentrations for growth inhibition.
Table 3 summarizes the data for several compounds of this structural group, including the IC50 for inhibition of enzyme activity in vitro, cellular mIC50 and anti-proliferative activity against tumor cells altered in PI 3-K mediated signaling, and effects on cellular levels of phospho-Akt.

MA-MB-468 cells = test: Three dimensional matrix model of tumor cell growth; type: cell-based; conditions: Homo sapiens, read-out: Percent Inhibition of Tumor Cell Viability
Experimental: PI 3-K inhibitors are assayed for effects on tumor cells grown in three-dimensional matrix that more closely mimics the environment of a tumor than other cell culture models. MA-MB-468 cells are mixed in a matrix solution, such as Matrigel (13D Biosciences) at 2×10 ^6 cells/ml and 100 μl of this mixture added to each well of a 24 well cell culture plate. Each well is 6.5 mm in diameter and 2×10^5 cells are added per well. Once the matrix is solidified, RMPI media containing 10% fetal calf serum and 2 mM L-glutamine is added to each well. After approximately 14 days of culture, the compounds are added to cell media at final concentrations ranging from 10 nM to 100 μM, and the cells are grown in the presence of the compounds for 7 days in RMPI media containing 0.5% fetal calf serum and 20 mM L-glutamine.
Following this treatment, cell growth in the three dimensional matrix can be measured using a cell viability assay such as the CellTiter 96 One Solution Cell Proliferation Assay (Promega, G3582). […] of assay solution is added per well, the cells are incubated for 3 hours. Absorbance at 550 nm is determined for each well and used directly as being equivalent of cell number. In addition, live and dead cells can be distinguished and observed using fluorescence microscopy after staining with Fluorescein diacetate (Sigma), which labels live cells, and propidium iodide (Sigma), which labels dead cells.
The PI 3-K inhibitors of the present invention show anti-proliferative effects in this model of tumor cell growth, as shown by the representative data in Table 6, which compares the anti-proliferative effects of one inhibitor compared to the effects of the benchmark PI 3-K inhibitor LY294002. The PI 3-K inhibitors of the present invention also show enhanced anti-proliferative activity when combined with other cancer drugs, for example paclitaxel or doxorubicin.

PI 3-K = conditions: background literature; read-out: IC50 (inhibits PI 3-K); cited from earlier work
[2] = SK-OV-3, 48 hours, MTT, DMSO alone controls = 100% viability, Trial 1, read-out: Trial 1 SKOV-3 (viability)
[3] = SK-OV-3, 48 hours, MTT, DMSO alone controls = 100% viability, Trial 2, read-out: Trial 2 SKOV-3 (viability)
[4] = SK-OV-3, average of Trial 1 and Trial 2, 48 hours, read-out: Average SKOV3 (viability)
[5] = OVCAR-3, 48 hours, MTT, DMSO alone controls = 100% viability, Trial 1, read-out: Trial 1 OVCAR3 (viability)
[6] = OVCAR-3, 48 hours, MTT, DMSO alone controls = 100% viability, Trial 2, read-out: Trial 2 OVCAR3 (viability)
[7] = OVCAR-3, average of Trial 1 and Trial 2, 48 hours, read-out: average OVCAR-3 (viability)

| SMILES | viability at 1 µM (SKOV3 cells; [2]) [%] | viability at 1 µM (SKOV3 cells; [3]) [%] | viability at 1 µM (SKOV3 cells; [4]) [%] | viability at 1 µM (OVCAR3 cells; [5]) [%] | viability at 1 µM (OVCAR3 cells; [6]) [%] | viability at 1 µM (OVCAR3 cells; [7]) [%] | Anti-proliferative effects on tumor cells altered in PI 3-K/PTEN [1] | IC50 [1] [µM] | cytotoxicity at 1 µM (MA-MB-468 cells; Concentration 1 μM) [%] | cytotoxicity at 5 µM (MA-MB-468 cells; Concentration 5 μM) [%] | cytotoxicity at 10 µM (MA-MB-468 cells; Concentration 10 μM) [%] | cytotoxicity at 50 µM (MA-MB-468 cells; Concentration 50 μM) [%] | IC50 (PI 3-K) [µM] |
| --- | --- | --- | --- | --- | --- | --- | --- | --- | --- | --- | --- | --- | --- |
| CC1(C)CC(=O)C2=C(C1)Nc1c(c(-c3ccccc3)nn1-c1ccc(F)cc1)C2c1ccc(C(C)(C)C)cc1 (stereo not drawn) [Compound 963924] | 100 | 100 | 100 | 61 | 66.4 | 63.7 | Yes | < 20 |  |  |  |  |  |
| CCOc1ccc(C2C3=C(CC(C)(C)CC3=O)Nc3c2c(C(C)(C)C)nn3C(C)(C)C)cc1 (stereo not drawn) [Compound 963977] | 98 | 81.7 | 89.8 | 41 | 59.6 | 50.3 |  |  |  |  |  |  |  |
| CCOc1ccc(C2C3=C(CC(C)(C)CC3=O)Nc3c2c(C(C)(C)C)nn3-c2ccc(Cl)cc2)cc1 (stereo not drawn) [Compound 964127] | 100 | 100 | 100 | 42 | 76.2 | 59.1 | Yes | < 20 |  |  |  |  |  |
| COc1cc(OC)cc(C2C3=C(CC(C)(C)CC3=O)Nc3c2c(C(C)(C)C)nn3-c2ccc(Cl)cc2)c1 (stereo not drawn) [Compound 964144] | 100 | 100 | 100 | 54 | 66.2 | 60.1 | Yes | < 20 |  |  |  |  |  |
| Cc1cccc(-n2nc(C(C)(C)C)c3c2NC2=C(C(=O)CC(C)(C)C2)C3c2ccc(C(C)(C)C)cc2)c1C (stereo not drawn) [Compound 964336] | 96 | 83 | 89.5 | 32 | 56 | 44 | Yes | < 20 |  |  |  |  |  |
| Cc1ccc(C2C3=C(CC(C)(C)CC3=O)Nc3c2c(C(C)(C)C)nn3-c2cccc(F)c2)cc1 (stereo not drawn) [Compound 964352] | 93 | 74 | 83.5 | 33 | 52.9 | 43 | Yes | < 20 |  |  |  |  |  |
| O=c1cc(N2CCOCC2)oc2c(-c3ccccc3)cccc12 [LY294002, reference compound] |  |  |  |  |  |  |  |  | < 5 | 50 | 60 | 90 |  |
| O=c1c(O)c(-c2ccc(O)c(O)c2)oc2cc(O)cc(O)c12 [quercetin] |  |  |  |  |  |  |  |  |  |  |  |  | 3.8 |
